pIC50: −log10 of the molar value.
Experiments:
[1] = test system: HepG2 (hepatocellular carcinoma); test: Cell viability in solid cancer cells, WST assay, HepG2; format: cell-based, human; conditions: HepG2, 1 to 30 μM, 6 hours
Source text: (§1) To confirm the possibility of use as a therapeutic agent for solid cancer, A549 cell line obtained from a […] with lung carcinoma, Hela cell line obtained from a person with cervix adenocarcinoma, HepG2 cell line obtained from a child with hepatocellular carcinoma, MCF7 cell line obtained from a person with breast adenocarcinoma, and Beas-2B cell line obtained from a normal lung for comparison with solid cancer cell line were used.
(§2) The A549 (lung carcinoma), Hela (cervix adenocarcinoma), HepG2 (hepatocellular carcinoma), MCF7 (breast carcinoma), and Beas-2B (normal lung) cell lines were used in DMEM medium containing 10% FBS, subcultured once every 2 days in an incubator under conditions of 37° C. and 5% CO2 and used in the experiment.
(§3) A549 (lung carcinoma), Hela (cervix adenocarcinoma), HepG2 (hepatocellular carcinoma), MCF7 (breast carcinoma), and Beas-2B (normal lung) cells cultured in Example 6-1 were inoculated into a 96-well plated at 1×10^4 cells/well, and then for the stabilization of cells, the cells were cultured in an incubator at 37° C. and 5% CO2 for 16 hours or more. Subsequently, among the compounds synthesized in Example 1, the compounds 1, 10 and 72 were treated at a concentration of 1 to 30 μM, and then cultured for 6 hours. At this time, DMSO and β-lapachone were used as the control group. After 4 hours of incubation, 10 μl of WST solution was added to each cell, the reaction was carried out for 2 hours, and the absorbance was measured at 450 nm with a multi-scan machine. The cell viabilities of A549 (lung carcinoma), Hela (cervix adenocarcinoma), HepG2 (hepatocellular carcinoma) and MCF7 (breast carcinoma) cells are shown in Table 4 and FIG. 6 below.

[2] = test system: MCF7 (breast carcinoma); test: Cell viability in solid cancer cells, WST assay, MCF7; format: cell-based, human; conditions: MCF7, 1 to 30 μM, 6 hours
Source text: as §1, §2, §3

[3] = test system: A549 (lung carcinoma); test: Cell viability in solid cancer cells, WST assay, A549; format: cell-based, human; conditions: A549, 1 to 30 μM, 6 hours
Source text: as §1, §2, §3

[4] = test system: Hela (cervix adenocarcinoma); test: Cell viability in solid cancer cells, WST assay, Hela; format: cell-based, human; conditions: 1 to 30 μM, 6 hours
Source text: as §1, §2, §3

[5] = test system: A549, Hela, HepG2, MCF7 and Beas-2B cells; test: Cell viability WST assay, all solid cancer and normal lung lines taken together; format: cell-based, human; conditions: 6 hours
Source text: as §1, §2, §3

[6] = test system: BCR-ABL fusion gene; test: Expression level of BCR-ABL fusion gene in K562 cells, western blot; format: cell-based, human; conditions: 0.5-2.5 μM, 6 hours, FIG. 5
Description: The BCR-ABL fusion gene, existing only in chronic myelogenous leukemia, generated and transmitted continuous cell growth signals to induce the growth of cancer cells. Thus, after chronic myeloid leukemia cells were treated with the compound of the present invention, western blot was used to confirm whether the expression level of the BCR-ABL fusion gene was reduced.
First, the K562 cells cultured in Example 4-1 were inoculated into a 60 mm plate at 5×10^6 cells/well, and then for the stabilization of cells, the cells were cultured in an incubator at 37° C. and 5% CO2 for 16 hours or more. The, the compound 1 was treated at concentrations of 0.5, 1, 1.5, 2 and 2.5 μM, respectively, and cultured for 6 hours, and then the cells were recovered. A protein extraction buffer (RIPA buffer) was added to the cells obtained in the above process, and reacted on ice for 30 minutes to break the cell membrane, which was centrifuged to remove a supernatant, and then the protein was extracted. The extracted protein was developed by electrophoresis using SDS-PAGE, and then transferred to the PVDF membrane. Then, the antibody related to the BCR-ABL fusion gene was reacted, and then the amount of the protein was confirmed using the ECL buffer, and Western blot results for the K562 cell line are shown in FIG. 5.

[7] = test system: KG1α cells; test: Cell viability in KG1α cells, WST assay; format: cell-based, human; conditions: 0.1 to 3 μM
Source text: (§4) The constructed cell lines were also diverse. Thus, in order to confirm the applicability to a wide range of therapeutic agents that are not therapeutic agents for specific types of acute leukemia, in the present invention, KG1α cells constructed by selecting only cells having a stem cell phenotype from KG1 cells, which are cell lines obtained from a person with acute myelogenous leukemia, were used. HL60 cells, which are cell lines obtained from a person with acute promyelocytic leukemia, and U937 cells, which are cell lines obtained from a person with histiocytic lymphoma, were used.
(§5) KG1α and HL60 cells were cultured in IMDM medium containing 20% FBS (fetal bovine serum), and U937 cells were cultured in RPMI 1640 medium containing 10% FBS. All cells were cultured in an incubator under conditions of 37° C. and 5% CO2, and subcultured once every 2 or 3 days and used in the experiment.
KG1α cells are cells resistant to idarubicin and cytarabine, which are the therapeutic agents for acute myeloid leukemia, and are refractory AML cells. KG1α cells cultured in Example 2-1 were cultured into a 96-well plate at 1×10^5 cells/well, and then cultured in an incubator at 37° C. and 5% CO2 for 16 hours or more for the stabilization of cells. […] At this time, DMSO was used as a control group. After 24 hours, each cell was treated with 10 μl of WST solution, reacted for 2 hours, and then absorbance was measured at 450 nm with a multi-scan machine, and the cell viability of KG1α cells was confirmed as shown in Table 4 below.

[8] = test system: acute myelogenous leukemia mouse model in which FLT3-ITD was overexpressed; test: Changes in monocyte cells in acute leukemia mouse model overexpressing FLT3-ITD; format: in vivo; conditions: 120 mg/kg in diet, 8 weeks, FACS, FIG. 4
Description: In order to confirm the change in the expression of the FLT3-ITD gene by Compound 1 of the present invention, peripheral blood and spleen were collected after 8 weeks from the animals of an experimental group in which Compound 1 of the present invention was mixed and administered in a diet at a concentration of 120 mg/kg using a mouse (jackson lab) that systemically overexpressed FLT3-ITD, and a control group to which only a solvent was administered (untreated group).
In the case of peripheral blood, cold 1×PBS was added to a small amount of blood, centrifuged, washed, to which RBC lysis buffer was added and reacted for 5 minutes at room temperature to remove red blood cells. […] The antibodies were reacted on ice at a ratio of 1:200 for 20 minutes, washed with 1×PBS, then resuspended with 1×PBS containing 1% FBS, and quantified by FACS, and shown in FIG. 4A.
In the case of the spleen, the cells were crushed on a mesh having a 40 μm hole, separated into single cells, and then washed with cold 1×PBS to which RBC lysis buffer was added and reacted at room temperature for 5 minutes to remove red blood cells. […] The antibodies were reacted on ice at a ratio of 1:200 for 20 minutes, washed with 1×PBS, resuspended in 1×PBS containing 1% FBS, and quantified by FACS, and shown in FIGS. 4B and 4C.

[9] = test system: HL60 cells; test: Apoptosis or cell necrosis in HL60 cells, FACS (Annexin-V/PI) and western blot; format: cell-based, human; conditions: 0-2 μM, 24 hours, FIG. 3
Description: (§6) Cell death was typically known as apoptosis or cell necrosis. Thus, in order to confirm whether the death of acute leukemia cells induced by the compound 1 of the present invention was due to apoptosis or cell necrosis, fluorescence activated cell sorting (FACS) and western blot were performed.
(§7) First, in order to conduct FACS, KG1α cells or HL60 cells cultured in […] were inoculated in a 6-well plate at 1×10^7 cells/well, and for the stabilization of cells, the cells were cultured in an incubator at 37° C. and 5% CO2 for 16 hours or more. Subsequently, the compound 1 was treated at concentrations of 0, 0.1, 0.5, 1 and 2 μM, respectively, and cultured for 24 hours, and then the cells were recovered and washed with cold PBS. Only 1×10^6 cells were taken and resuspended with PBS, and then stained with Annexin-V (green fluorescence), which increases during apoptosis, and Pi (propidium iodide, red fluorescence), which […]. The degree of the two indicators were quantified by FACS, the FACS results for KG1α cells are shown in FIG. 2A, and the FACS results for HL60 cells are shown in FIG. 3A.
(§8) Next, in order to perform western blot, KG1α cells or HL60 cells cultured in Example 2-1 were inoculated into a 6-well plate at 1×10^7 cells/well. In order to stabilize the cells, the cells were cultured for 16 hours or more in an incubator at 37° C. and 5% CO2. […]

[10] = test system: HL60 cells; test: Cell viability of HL60 cells, WST-1; format: cell-based, human; conditions: 24 hours, WST-1, FIG. 1A
Source text: as §4, §5
(§9) The HL60 cells or U937 cells cultured in Example 2-1 were inoculated into a 96-well plate at 1×10^5 cells/well, and then for the stabilization of cells, the cells were cultured in an incubator at 37° C. and 5% CO2 for 16 hours or more. Subsequently, the compound 1 synthesized in Example 1 was treated at concentrations of 0.1, 0.5 and 1 μM, respectively, and reacted for 24 hours. […] The absorbance was then measured at 450 nm with a multi-scan machine.

[11] = test system: U937 cells; test: Cell viability of U937 cells, WST-1; format: cell-based, human; conditions: 24 hours, WST-1, FIG. 1B
Source text: as §4, §5, §9

[12] = test system: K562 cells; test: Cell viability in chronic leukemia K562 cells, WST assay; format: cell-based, human; conditions: 0.1 to 5 μM
Description: K562 cells obtained from a person with chronic myeloid leukemia were cultured in an incubator under conditions of 37° C. and 5% CO2 using RPMI medium containing 10% FBS (fetal bovine serum), and subcultured once every two days and used in the experiment.
The K562 cells cultured in Example 4-1 were inoculated into a 96-well plate at 1×10^5 cells/well, and then, for the stabilization of cells, the cells were cultured in an incubator at 37° C. and 5% CO2 for 16 hours or more. Subsequently, among the compounds synthesized in Example 1, the compounds 1, 10, and 72 and 192 were treated at a concentration of 0.1 to 5 μM and then cultured for 4 hours. At this time, DMSO was used as a control group. After 4 hours of incubation, 10 μl of WST solution was added to each cell and then reacted for 2 hours.

[13] = test system: C57BL/6 mice; test: Acute toxicity experiment, mortality in mice; format: in vivo; conditions: 120 mg/kg orally, 24 hours after administration
Description: This experiment was conducted to examine the acute toxicity to the animal body acutely (within 24 hours) when the compound 1 of the present invention was ingested in excess in a short period of time, and to determine the mortality rate. 20 C57BL/6 mice, which are common mice, were prepared, and ten mice were assigned to each group. Only 0.1% SLS (sodium lauryl sulfate) was administered to the control group, and the compound 1 was orally administered to the experimental group at a concentration of 120 mg/kg, respectively. As a result of examining each mortality rate 24 hours after administration, both the control group and the experimental group to which the compound 1 was administered survived.

[14] = test system: KG1α cells; test: Apoptosis or cell necrosis in KG1α cells, FACS (Annexin-V/PI) and western blot; format: cell-based, human; conditions: 0-2 μM, 24 hours, FIG. 2
Description: as §6, §7, §8

Row | pIC50 ([1]; Homo sapiens) | pIC50 ([2]; Homo sapiens) | pIC50 ([3]; Homo sapiens) | pIC50 ([4]; Homo sapiens) | pIC50 ([12]; Homo sapiens, K562, 4 h) | SMILES | killing effect compared with β-lapachone [5] | pIC50 ([7]; 24 hours) | pIC50 ([7]; Homo sapiens, KG-1, 24 h) | pIC50 ([12]; 4 hours) | also measured
1 | – | – | – | – | – | CC1(C)CCC2=C(O1)c1ccccc1C(=O)C2=O [beta-rapacon, β-lapachone, reference compound] | – | – | – | – | pIC50 [1]: 4.91; pIC50 [2]: 4.88; pIC50 [3]: 5.30; pIC50 [4]: 5.32
2 | 4.92 | 4.85 | 5.26 | 5.11 | 6.05 | CCc1nc2c([nH]1)C(=O)C(=O)c1ccccc1-2 [compound 10] | killing effect similar to β-lapachone | 6.30 | 6.00 to 6.30 | – | –
3 | 4.90 | 4.90 | 5.19 | 5.04 | 5.70 to 6.00 | O=C1C(=O)c2[nH]c(C3CCCO3)nc2-c2ccccc21 (stereo not drawn) [compound 72] | killing effect similar to β-lapachone | 6.15 | 6.00 to 6.30 | 5.85 | –

Row | SMILES | pIC50 ([1]; Homo sapiens) | pIC50 ([2]; Homo sapiens) | pIC50 ([3]; Homo sapiens) | pIC50 ([4]; Homo sapiens) | pIC50 ([12]; Homo sapiens, K562, 4 h) | killing effect compared with β-lapachone [5] | pIC50 ([7]; 24 hours) | pIC50 ([7]; Homo sapiens, KG-1, 24 h) | pIC50 ([12]; 4 hours) | also measured
4 | CC(C)c1nc2c([nH]1)C(=O)C(=O)c1ccccc1-2 [compound 1] | 5.00 | 4.84 | 5.29 | 5.34 | 5.70 to 6.00 | killing effect similar to β-lapachone | 6.30 | 6.00 to 6.30 | 5.80 | expression level of the BCR-ABL fusion gene [6]: decreased in a concentration-dependent manner; expression of phospho-bcr-abl [6]: also decreased; expression of phospho-stat5 [6]: also decreased; suppression of proliferation of monocyte cells in peripheral blood and spleen [8]: excellent effect of suppressing the proliferation of monocyte cells; apoptosis or cell necrosis, HL60 cells [9]: both apoptosis and cell necrosis occurred; cell killing effect (cell viability), HL60 cells [10]: concentration-dependent cell killing effects; cell killing effect (cell viability), U937 cells [11]: concentration-dependent cell killing effects; mortality, acute toxicity [13]: survived; apoptosis or cell necrosis, KG1α cells [14]: died due to apoptosis

From patent publication US11684610B2, “Pharmaceutical composition including 1,2-naphthoquinone derivative compound for prevention or treatment of solid cancers or blood cancers” (YUNGJIN PHARM. CO., LTD., priority 2018, dated 2023)
